Laboratory results from the supplement of paper PMC10307832.

Assays:
Test in all cases: relative viability (nuclei count vs DMSO), 5 days (fraction); higher = more cells survive
NCI-H1792 = system: NCI-H1792
Summary of the method: (§1)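 Nuclei were stained with Hoechst during a one-step fixation (final 0.05% Triton X-100, 1% formaldehyde, 1 ug/ml Hoechst) carried out 5 days after dosing, then counted on 4× images. The cells, lung cancer lines in 1536-well plates, had been dosed by pin tool the day after seeding with one drug alone or a fixed anchor-drug dose plus five library-drug doses (not always all listed) in √10 steps. Relative viability is the nuclei count in treated wells divided by that in vehicle wells, and each value is the median of duplicate plates.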

COR-L 105 = system: COR-L 105
Summary of the method: as §1

NCI-H1975 = system: NCI-H1975
Summary of the method: as §1

NCI-H358 = system: NCI-H358
Summary of the method: as §1

NCI-H838 = system: NCI-H838
Summary of the method: as §1

BEN = system: BEN
Summary of the method: as §1

NCI-H1666 = system: NCI-H1666
Summary of the method: as §1

NCI-H23 = system: NCI-H23
Summary of the method: as §1

EKVX = system: EKVX
Summary of the method: as §1

HCC-15 = system: HCC-15
Summary of the method: as §1

NCI-H1437 = system: NCI-H1437
Summary of the method: as §1

HARA = system: HARA
Summary of the method: as §1

LK-2 = system: LK-2
Summary of the method: as §1

COR-L23 = system: COR-L23
Summary of the method: as §1

NCI-H441 = system: NCI-H441
Summary of the method: as §1

NCI-H650 = system: NCI-H650
Summary of the method: as §1

SW 900 = system: SW 900
Summary of the method: as §1

A-427 = system: A-427
Summary of the method: as §1

HCC-827 = system: HCC-827
Summary of the method: as §1

201T = system: 201T
Summary of the method: as §1

SK-MES-1 = system: SK-MES-1
Summary of the method: as §1

NCI-H596 = system: NCI-H596
Summary of the method: as §1

With CC1(C)CCC(c2ccc(Cl)cc2)=C(CN2CCN(c3ccc(C(=O)NS(=O)(=O)c4ccc(N[C@H](CCN5CCOCC5)CSc5ccccc5)c(S(=O)(=O)C(F)(F)F)c4)cc3)CC2)C1 [Navitoclax] + Cc1nc(Nc2ncc(C(=O)Nc3c(C)cccc3Cl)s2)cc(N2CCN(CCO)CC2)n1 [Dasatinib] (partner 0.075 µM) the relative viability (NCI-H1792; first compound 0.005 µM) was 0.717, the relative viability (NCI-H1792; first compound 0.01581 µM) was 0.914 and the relative viability (NCI-H1792; first compound 0.05 µM) was 0.64. It also gave a relative viability (NCI-H1792; first compound 0.1581 µM) of 0.782, a relative viability (NCI-H1792; first compound 0.5 µM) of 0.79 and a relative viability (COR-L 105; first compound 0.005 µM) of 0.331. The relative viability (COR-L 105; first compound 0.01581 µM) was 0.458, the relative viability (COR-L 105; first compound 0.05 µM) was 0.331 and the relative viability (COR-L 105; first compound 0.1581 µM) was 0.342. It also gave a relative viability (COR-L 105; first compound 0.5 µM) of 0.306, a relative viability (NCI-H1975; first compound 0.005 µM) of 0.346 and a relative viability (NCI-H1975; first compound 0.01581 µM) of 0.36. It also gave a relative viability (NCI-H1975; first compound 0.05 µM) of 0.415, a relative viability (NCI-H1975; first compound 0.1581 µM) of 0.337 and a relative viability (NCI-H1975; first compound 0.5 µM) of 0.323. It also gave a relative viability (NCI-H358; first compound 0.005 µM) of 0.188, a relative viability (NCI-H358; first compound 0.01581 µM) of 0.219 and a relative viability (NCI-H358; first compound 0.05 µM) of 0.142. For the same compound, the relative viability (NCI-H358; first compound 0.1581 µM) was 0.165, the relative viability (NCI-H358; first compound 0.5 µM) was 0.199 and the relative viability (NCI-H838; first compound 0.005 µM) was 0.267. For the same compound, the relative viability (NCI-H838; first compound 0.01581 µM) was 0.334, the relative viability (NCI-H838; first compound 0.05 µM) was 0.26 and the relative viability (NCI-H838; first compound 0.1581 µM) was 0.238. For the same compound, the relative viability (NCI-H838; first compound 0.5 µM) was 0.36, the relative viability (BEN; first compound 0.005 µM) was 0.301 and the relative viability (BEN; first compound 0.01581 µM) was 0.312. For the same compound, the relative viability (BEN; first compound 0.05 µM) was 0.333, the relative viability (BEN; first compound 0.1581 µM) was 0.297 and the relative viability (BEN; first compound 0.5 µM) was 0.0643. The relative viability (NCI-H1666; first compound 0.005 µM) was 0.647, the relative viability (NCI-H1666; first compound 0.01581 µM) was 0.853 and the relative viability (NCI-H1666; first compound 0.05 µM) was 0.755. For the same compound, the relative viability (NCI-H1666; first compound 0.1581 µM) was 0.833, the relative viability (NCI-H1666; first compound 0.5 µM) was 0.766 and the relative viability (NCI-H23; first compound 0.005 µM) was 0.841. It also gave a relative viability (NCI-H23; first compound 0.01581 µM) of 0.79, a relative viability (NCI-H23; first compound 0.05 µM) of 0.627 and a relative viability (NCI-H23; first compound 0.1581 µM) of 0.705. It also gave a relative viability (NCI-H23; first compound 0.5 µM) of 0.779, a relative viability (EKVX; first compound 0.005 µM) of 0.607 and a relative viability (EKVX; first compound 0.01581 µM) of 0.583. The relative viability (EKVX; first compound 0.05 µM) was 0.512, the relative viability (EKVX; first compound 0.1581 µM) was 0.692 and the relative viability (EKVX; first compound 0.5 µM) was 0.598. It also gave a relative viability (HCC-15; first compound 0.005 µM) of 0.619, a relative viability (HCC-15; first compound 0.01581 µM) of 0.643 and a relative viability (HCC-15; first compound 0.05 µM) of 0.577. The relative viability (HCC-15; first compound 0.1581 µM) was 0.572, the relative viability (HCC-15; first compound 0.5 µM) was 0.392 and the relative viability (NCI-H1437; first compound 0.005 µM) was 0.377. For the same compound, the relative viability (NCI-H1437; first compound 0.01581 µM) was 0.513, the relative viability (NCI-H1437; first compound 0.05 µM) was 0.287 and the relative viability (NCI-H1437; first compound 0.1581 µM) was 0.394. The relative viability (NCI-H1437; first compound 0.5 µM) was 0.41, the relative viability (HARA; first compound 0.005 µM) was 0.308 and the relative viability (HARA; first compound 0.01581 µM) was 0.277. For the same compound, the relative viability (HARA; first compound 0.1581 µM) was 0.29, the relative viability (HARA; first compound 0.5 µM) was 0.242 and the relative viability (LK-2; first compound 0.005 µM) was 0.319. For the same compound, the relative viability (LK-2; first compound 0.01581 µM) was 0.368, the relative viability (LK-2; first compound 0.05 µM) was 0.309 and the relative viability (LK-2; first compound 0.1581 µM) was 0.202. For the same compound, the relative viability (LK-2; first compound 0.5 µM) was 0.37, the relative viability (COR-L23; first compound 0.005 µM) was 0.509 and the relative viability (COR-L23; first compound 0.01581 µM) was 0.595. The relative viability (COR-L23; first compound 0.05 µM) was 0.521, the relative viability (COR-L23; first compound 0.1581 µM) was 0.447 and the relative viability (COR-L23; first compound 0.5 µM) was 0.556. For the same compound, the relative viability (NCI-H441; first compound 0.005 µM) was 0.739, the relative viability (NCI-H441; first compound 0.01581 µM) was 0.639 and the relative viability (NCI-H441; first compound 0.05 µM) was 0.549. It also gave a relative viability (NCI-H441; first compound 0.1581 µM) of 0.632, a relative viability (NCI-H441; first compound 0.5 µM) of 0.637 and a relative viability (NCI-H650; first compound 0.005 µM) of 0.456. For the same compound, the relative viability (NCI-H650; first compound 0.01581 µM) was 0.473, the relative viability (NCI-H650; first compound 0.05 µM) was 0.463 and the relative viability (NCI-H650; first compound 0.1581 µM) was 0.477. The relative viability (NCI-H650; first compound 0.5 µM) was 0.459, the relative viability (SW 900; first compound 0.005 µM) was 0.504 and the relative viability (SW 900; first compound 0.01581 µM) was 0.537. It also gave a relative viability (SW 900; first compound 0.05 µM) of 0.475, a relative viability (SW 900; first compound 0.1581 µM) of 0.8 and a relative viability (SW 900; first compound 0.5 µM) of 0.42. The relative viability (A-427; first compound 0.005 µM) was 0.784, the relative viability (A-427; first compound 0.01581 µM) was 0.694 and the relative viability (A-427; first compound 0.05 µM) was 0.71. The relative viability (A-427; first compound 0.1581 µM) was 0.734, the relative viability (A-427; first compound 0.5 µM) was 0.643 and the relative viability (HCC-827; first compound 0.005 µM) was 0.388. It also gave a relative viability (HCC-827; first compound 0.01581 µM) of 0.387, a relative viability (HCC-827; first compound 0.05 µM) of 0.297 and a relative viability (HCC-827; first compound 0.1581 µM) of 0.271. For the same compound, the relative viability (HCC-827; first compound 0.5 µM) was 0.359, the relative viability (201T; first compound 0.005 µM) was 0.603 and the relative viability (201T; first compound 0.01581 µM) was 0.662. The relative viability (201T; first compound 0.05 µM) was 0.587, the relative viability (201T; first compound 0.1581 µM) was 0.592 and the relative viability (201T; first compound 0.5 µM) was 0.714. For the same compound, the relative viability (SK-MES-1; first compound 0.005 µM) was 0.324, the relative viability (SK-MES-1; first compound 0.01581 µM) was 0.466 and the relative viability (SK-MES-1; first compound 0.05 µM) was 0.395. For the same compound, the relative viability (SK-MES-1; first compound 0.1581 µM) was 0.393, the relative viability (SK-MES-1; first compound 0.5 µM) was 0.43 and the relative viability (NCI-H596; first compound 0.005 µM) was 0.734. The relative viability (NCI-H596; first compound 0.01581 µM) was 0.68, the relative viability (NCI-H596; first compound 0.1581 µM) was 0.603 and the relative viability (NCI-H596; first compound 0.5 µM) was 0.438.
